Consider 14 compounds from ChEMBL document CHEMBL3600312, “Novel Oxazolidinone-Based Peroxisome Proliferator Activated Receptor Agonists: Molecular Modeling, Synthesis, and Biological Evaluation” (J Med Chem, 2015).

SMILES strings stand for the structures. The source made the active and inactive calls. The rule behind the calls is not given here.

Assay [1] deals with T1, Peroxisome proliferator-activated receptor alpha (Homo sapiens, UniProt Q07869).
T1 sequence (Q07869 whole entry): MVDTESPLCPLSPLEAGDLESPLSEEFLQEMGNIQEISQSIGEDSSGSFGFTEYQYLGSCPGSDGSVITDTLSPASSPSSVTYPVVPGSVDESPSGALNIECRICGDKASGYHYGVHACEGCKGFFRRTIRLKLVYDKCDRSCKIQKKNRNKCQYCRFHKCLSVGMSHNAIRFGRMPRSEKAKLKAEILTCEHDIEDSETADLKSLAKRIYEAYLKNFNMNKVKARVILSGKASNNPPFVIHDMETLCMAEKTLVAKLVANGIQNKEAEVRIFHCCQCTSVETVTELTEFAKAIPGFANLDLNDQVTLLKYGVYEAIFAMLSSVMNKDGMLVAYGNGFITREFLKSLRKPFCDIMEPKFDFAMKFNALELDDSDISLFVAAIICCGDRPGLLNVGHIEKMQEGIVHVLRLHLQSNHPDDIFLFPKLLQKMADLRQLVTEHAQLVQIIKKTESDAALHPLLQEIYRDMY
The assay can be described thus: Agonist activity at human PPARalpha transfected in human MCF7 cells after 16 hrs by luciferase reporter gene assay. It is filed as cell-based.

Assay [2] deals with T2, Peroxisome proliferator-activated receptor gamma (Homo sapiens, UniProt P37231).
T2 sequence (P37231 whole entry): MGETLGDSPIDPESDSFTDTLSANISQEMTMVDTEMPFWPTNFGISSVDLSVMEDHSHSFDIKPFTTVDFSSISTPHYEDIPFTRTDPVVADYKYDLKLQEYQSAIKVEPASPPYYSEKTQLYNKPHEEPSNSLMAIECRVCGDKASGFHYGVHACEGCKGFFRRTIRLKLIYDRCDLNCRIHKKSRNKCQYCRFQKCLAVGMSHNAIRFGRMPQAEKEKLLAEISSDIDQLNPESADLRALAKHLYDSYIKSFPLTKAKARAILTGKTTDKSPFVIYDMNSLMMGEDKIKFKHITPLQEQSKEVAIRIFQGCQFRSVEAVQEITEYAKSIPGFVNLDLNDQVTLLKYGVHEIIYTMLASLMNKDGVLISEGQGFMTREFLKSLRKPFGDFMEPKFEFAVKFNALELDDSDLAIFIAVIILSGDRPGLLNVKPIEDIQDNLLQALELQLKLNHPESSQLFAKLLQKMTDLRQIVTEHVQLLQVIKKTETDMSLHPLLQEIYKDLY
The assay can be described thus: Agonist activity at human PPARgamma transfected in human MCF7 cells after 16 hrs by luciferase reporter gene assay. The format is cell-based.

For assay [3], the system named is Rattus norvegicus. The assay is described as follows: Inhibition of food intake in ip dosed 24 hrs food derived obese Wistar rat after 30 to 240 mins. It is filed as functional, organism-based.
For assay [4], the system named is Rattus norvegicus. The assay can be described thus: Inhibition of food intake in ip dosed 24 hrs food derived obese Wistar rat after 24 hrs. The format is functional, organism-based.
Assay [5] has as its system Rattus norvegicus. The assay is described as follows: Inhibition of food intake in 24 hrs food derived obese Wistar rat at 3 mg/kg, ip measured up to 120 mins relative to vehicle-treated control. It is filed as functional.
Assay [6] relates to Rattus norvegicus. The assay can be described thus: Inhibition of food intake in 24 hrs food derived obese Wistar rat at 3 mg/kg, ip after 240 mins. The format is functional, organism-based.

In assay [1], `O=C(NCc1ccc(C(F)(F)F)cc1)c1ccc(NC(=O)c2cccc(CN3C(=O)OC[C@@H]3Cc3ccccc3)c2)cc1` showed a concentration giving a half-maximal response (EC50) greater than 100000 nM.

`O=C(Nc1ccc(C(=O)NC2CC2)cc1)c1cccc(CN2C(=O)OC[C@H]2Cc2ccccc2)c1`: in assay [1], a half-maximal response (EC50) required 1980 nM.

`CCCCCNC(=O)c1ccc(NC(=O)c2cccc(CN3C(=O)OC[C@@H]3Cc3ccccc3)c2)cc1` registered an EC50 in assay [1] greater than 100000 nM.

Take `O=C(NCC1CCCCC1)c1ccc(NC(=O)c2cccc(CN3C(=O)OC[C@H]3Cc3ccccc3)c2)cc1`: the EC50 in assay [2] and in assay [1] was greater than 100000 nM each time.

Take `CCCCCC(=O)Nc1ccc(C(=O)Nc2cccc(C[C@H](C)C(=O)N3C(=O)OC[C@H]3Cc3ccccc3)c2)cc1`: in assay [1], it took 1920 nM to reach a half-maximal effect (EC50).

In the case of `CCCCCNC(=O)c1ccc(NC(=O)c2cccc(CN3C(=O)OC[C@H]3Cc3ccccc3)c2)cc1`, the inhibition result with Rattus norvegicus [3] and with Rattus norvegicus [4] was “Dose-dependent effect” in each case.

On to `C[C@@H](Cc1cccc(NC(=O)c2ccc(NC(=O)Cc3ccc(C(C)(C)C)cc3)cc2)c1)C(=O)O`, for which the EC50 in assay [1] amounted to 866 nM. In other words, the sub-micromolar range.

Regarding `C[C@@H](Cc1cccc(NC(=O)c2ccc(NC(=O)Cc3ccc(C(C)(C)C)cc3)cc2)c1)C(=O)N1C(=O)OC[C@H]1Cc1ccccc1`, the EC50 in assay [1] worked out at 966 nM.

On to `CC(C)(C)c1ccc(CNC(=O)c2ccc(NC(=O)c3cccc(CN4C(=O)OC[C@H]4Cc4ccccc4)c3)cc2)cc1`, for which, in the assay on Rattus norvegicus [5], the inhibition in vivo at 3 mg/kg is 50%. The inhibition result in the assay on Rattus norvegicus [6] was “inactive”. In addition, the inhibition entry with Rattus norvegicus [3] was “Dose-dependent effect”.

Consider `CCCCCCCCCCCCNC(=O)c1ccc(NC(=O)c2cccc(CN3C(=O)OC[C@H]3Cc3ccccc3)c2)cc1`, for which the concentration for a half-maximal effect (EC50) in assay [2] is greater than 100000 nM; in assay [1], 6620 nM.

As for `CC(C)(C)c1ccc(CNC(=O)c2ccc(NC(=O)c3cccc(CN4C(=O)OC[C@@H]4Cc4ccccc4)c3)cc2)cc1`, the EC50 in assay [1] came to 756 nM.

`O=C(NCc1ccccc1)c1ccc(NC(=O)c2cccc(CN3C(=O)OC[C@H]3Cc3ccccc3)c2)cc1`: the EC50 in assay [2] and in assay [1] was greater than 100000 nM throughout.

Take `CCCCCC(=O)Nc1ccc(C(=O)Nc2cccc(C[C@H](C)C(=O)O)c2)cc1`: in assay [1], the EC50 amounted to 981 nM.

On to `O=C(NCc1ccc(C(F)(F)F)cc1)c1ccc(NC(=O)c2cccc(CN3C(=O)OC[C@H]3Cc3ccccc3)c2)cc1`, for which the concentration for a half-maximal effect (EC50) in assay [2] and in assay [1] was greater than 100000 nM each time.
